Assay [1] deals with T1, Melatonin receptor type 1B (Homo sapiens) (UniProt P49286).
T1 sequence (whole entry): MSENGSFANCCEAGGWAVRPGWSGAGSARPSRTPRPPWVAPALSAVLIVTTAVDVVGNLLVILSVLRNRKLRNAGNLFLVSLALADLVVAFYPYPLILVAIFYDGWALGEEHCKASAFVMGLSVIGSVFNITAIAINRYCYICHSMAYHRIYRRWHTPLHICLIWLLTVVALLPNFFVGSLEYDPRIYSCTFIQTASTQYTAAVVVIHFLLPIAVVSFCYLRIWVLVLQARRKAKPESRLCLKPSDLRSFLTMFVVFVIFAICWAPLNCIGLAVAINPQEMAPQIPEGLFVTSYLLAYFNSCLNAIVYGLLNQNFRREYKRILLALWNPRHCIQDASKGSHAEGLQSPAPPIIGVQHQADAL
The experiment in a line: Intrinsic activity in [35S]GTP-gamma-S, binding at human melatonin receptor MT2 relative to melatonin. Type of assay: functional. (In general: GTPγS is a poorly hydrolysed GTP analogue; its binding reports G protein activation.)

Assay [2] deals with T2, Melatonin receptor type 1B (Homo sapiens, UniProt P49286).
T2 sequence (P49286 whole entry): T1 sequence (whole entry)
The experiment in a line: Inhibition of 2-[125I]iodomelatonin binding to human melatonin receptor MT2 expressed in […] cells. Type of assay: cell-based.

Assay [3] concerns the target Melatonin receptor type 1A (Homo sapiens, UniProt P48039). Put plainly: Inhibition of 2-[125I]iodomelatonin binding to human melatonin receptor type 1A (MT1) expressed in […] cells. Type of assay: cell-based.

The record followed here is ChEMBL document CHEMBL1139541 (J Med Chem, 2005).

In general, Ki refers to a measure of affinity in units of concentration, obtained from inhibition or displacement. A lower Ki goes with a stronger hold on the target.

Sequence of Melatonin receptor type 1A (P48039 whole entry): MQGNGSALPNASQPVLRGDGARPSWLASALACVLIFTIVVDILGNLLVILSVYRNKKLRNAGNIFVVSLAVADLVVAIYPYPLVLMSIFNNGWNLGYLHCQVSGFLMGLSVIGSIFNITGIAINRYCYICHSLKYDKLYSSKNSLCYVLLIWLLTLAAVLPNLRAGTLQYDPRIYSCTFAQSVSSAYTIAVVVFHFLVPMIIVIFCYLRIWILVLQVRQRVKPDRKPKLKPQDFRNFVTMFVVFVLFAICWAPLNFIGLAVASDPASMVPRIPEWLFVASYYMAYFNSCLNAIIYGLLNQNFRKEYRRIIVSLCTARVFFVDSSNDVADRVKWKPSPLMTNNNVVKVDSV

In assay [1], `CCC(=O)NCc1cc2c(OC)cccc2n1Cc1c(C)cccc1C` yielded an IA of 0.16. Moreover, the Ki in assay [2] was 6030 nM; in assay [3], > 10000 nM.

Consider `CCC(=O)NCc1cc2c(OC)cccc2n1C(=O)c1ccc(Cl)cc1`, for which, in assay [1], the IA is -0.08. In addition, the figures for the inhibitory constant (Ki) in assay [2] and in assay [3] were 1820 nM and > 10000 nM, respectively.

In the case of `CCC(=O)NCc1cc2c(OC)cccc2n1Cc1ccc(Cl)cc1`, the IA in assay [1] is 0.01.

As to `CCC(=O)NCc1cc2c(OC)cccc2n1S(=O)(=O)c1ccccc1`, the IA in assay [1] was 0.08. The Ki was 288 nM in assay [2] and > 10000 nM in assay [3].

Regarding `COc1cc2c(cc1OC)C(CC(c1ccccc1)c1ccccc1)N(C(C)=O)CC2` (centres undefined), the figures for the inhibition constant Ki in assay [2] and in assay [3] were 9.77 nM and > 1000 nM, respectively.

Take `CCC(=O)NC1Cc2ccccc2C(c2ccccc2)C1` (centres undefined): the Ki in assay [2] was 0.0158 nM; in assay [3] it was 105 nM.
